From patent US20230365514A1, “MACROCYCLIC COMPOUNDS” (NOVO NORDISK RESEARCH CENTRE OXFORD LIMITED, priority 2017, published 2023)

Columns and labels:
Assay type in all cases: binding
[1] = ITC titration with 2-deoxy-D-glucose
Method: (§1) ITC experiments were carried out at 298 K. Saccharide solutions were prepared in HPLC-grade water with 10 mM phosphate buffer solution (pH 7.4) and allowed to equilibrate overnight if necessary. The sample cell was charged with a known concentration of receptor solution in HPLC-grade water with 10 mM phosphate buffer solution at pH 7.4 (typically 50 µM - 200 µM). Then, aliquots (typically 1.0 µL) of carbohydrate solution were added and the evolution of heat was followed as a function of time. Heats of dilution were measured by injecting the same carbohydrate solution into HPLC-grade water with 10 mM phosphate buffer solution at pH 7.4, using identical conditions. For every addition, the heat of dilution was subtracted from the heat of binding using a MicroCal software programme implemented in ORIGIN 7.0. This gave an XY matrix of heat vs. total guest concentration. This matrix was then imported into a specially written Excel programme to fit the data to a 1:1 binding model to give a Ka. ΔG can be derived from Ka and thus ΔS can be derived from ΔH and ΔG using common thermodynamic equations. […] This method consistently produced more accurate fits than fitting the data to an S-curve, as in the MicroCal software (S-curves are typically not observed for binding constants below ~104 - 105 M^-1).

[2] = ITC titration with D-galactose; details: 10 mM phosphate buffer pH 7.4, 298 K
Method: (§2) Isothermal Titration (Micro)Calorimetry (ITC) experiments were performed on a MicroCal iTC200 microcalorimeter and/or a MicroCali VP-ITC. ITC experiments were carried out at 298 K. Saccharide solutions were prepared in HPLC-grade water and allowed to equilibrate overnight if necessary. The sample cell was charged with a known concentration of receptor solution in HPLC-grade water (typically 50 µM - 200 µM). Then, aliquots (typically 1.0 µL) of carbohydrate solution were added and the evolution of heat was followed as a function of time. Heats of dilution were measured by injecting the same carbohydrate solution into HPLC-grade water, using identical conditions. For every addition, the heat of dilution was subtracted from the heat of binding using a MicroCal software programme implemented in ORIGIN 7.0. This gave an XY matrix of heat vs. total guest concentration. This matrix was then imported into a specially written Excel programme to fit the data to a 1:1 binding model to give a Ka. ΔG can be derived from Ka, and ΔS can be derived from ΔH and ΔG using common thermodynamic equations. This method of analysis was used in conjunction with fits for Ka calculated using the MicroCal software to corroborate the results obtained.
(§3) Isothermal Titration MicroCalorimetry (ITC) experiments were performed on a MicroCal iTC200 microcalorimeter and/or a MicroCali VP-ITC. ITC experiments were carried out at 298 K. Saccharide solutions were prepared in HPLC-grade water with 10 mM phosphate buffer solution (pH 7.4) and allowed to equilibrate overnight if necessary. The sample cell was charged with a known concentration of receptor solution in HPLC-grade water with 10 mM phosphate buffer solution at pH 7.4 (typically 50 µM - 200 µM). Then, aliquots (typically 1.0 µL) of carbohydrate solution were added and the evolution of heat was followed as a function of time. Heats of dilution were measured by injecting the same carbohydrate solution into HPLC-grade water with 10 mM phosphate buffer solution at pH 7.4, using identical conditions. […]

[3] = ITC titration with D-mannose; details: 10 mM phosphate buffer pH 7.4, 298 K
Method: as §2, §3

[4] = ITC titration with D-ribose; details: 10 mM phosphate buffer pH 7.4, 298 K
Method: as §2, §3

[5] = ITC titration with D-fructose; details: 10 mM phosphate buffer pH 7.4, 298 K
Method: as §1

[6] = ITC titration with D-cellobiose
Method: as §1

[7] = ITC titration with D-mannitol; details: 10 mM phosphate buffer pH 7.4, 298 K
Method: (§4) ITC experiments were carried out at 298 K. Saccharide solutions were prepared in HPLC-grade water with 10 mM phosphate buffer solution (pH 7.4) and allowed to equilibrate overnight if necessary. The sample cell was charged with a known concentration of receptor solution in HPLC-grade water with 10 mM phosphate buffer solution at pH 7.4 (typically 50 µM - 200 µM). Then, aliquots (typically 1.0 µL) of carbohydrate solution were added and the evolution of heat was followed as a function of time. Heats of dilution were measured by injecting the same carbohydrate solution into HPLC-grade water with 10 mM phosphate buffer solution at pH 7.4, using identical conditions. For every addition, the heat of dilution was subtracted from the heat of binding using a MicroCal software programme implemented in ORIGIN 7.0. This gave an XY matrix of heat vs. total guest concentration. This matrix was then imported into a specially written Excel programme to fit the data to a 1:1 binding model to give a Ka. ΔG can be derived from Ka and thus ΔS can be derived from ΔH and ΔG using common thermodynamic equations.

[8] = ITC titration with gluconate; details: Gluconate (from D-glucono-δ-lactone); 10 mM phosphate buffer pH 7.4, 298 K
Method: as §4

[9] = ITC titration with methyl α-D-glucoside; details: 10 mM phosphate buffer pH 7.4, 298 K
Method: as §4

[10] = ITC titration with N-acetyl-D-glucosamine; details: 10 mM phosphate buffer pH 7.4, 298 K
Method: as §4

[11] = ITC titration with D-maltose; details: 10 mM phosphate buffer pH 7.4, 298 K
Method: (§5) Isothermal Titration (Micro)Calorimetry (ITC) experiments were performed on a MicroCal iTC200 microcalorimeter and/or a MicroCali VP-ITC. ITC experiments were carried out at 298 K. Saccharide solutions were prepared in HPLC-grade water and allowed to equilibrate overnight if necessary. The sample cell was charged with a known concentration of receptor solution in HPLC-grade water (typically 50 µM - 200 µM). Then, aliquots (typically 1.0 µL) of carbohydrate solution were added and the evolution of heat was followed as a function of time. Heats of dilution were measured by injecting the same carbohydrate solution into HPLC-grade water, using identical conditions. For every addition, the heat of dilution was subtracted from the heat of binding using a MicroCal software programme implemented in ORIGIN 7.0. This gave an XY matrix of heat vs. total guest concentration. […] This method of analysis was used in conjunction with fits for Ka calculated using the MicroCal software to corroborate the results obtained.
(§6) Isothermal Titration MicroCalorimetry (ITC) experiments were performed on a MicroCal iTC200 microcalorimeter and/or a MicroCali VP-ITC. […] Heats of dilution were measured by injecting the same carbohydrate solution into HPLC-grade water with 10 mM phosphate buffer solution at pH 7.4, using identical conditions. […]

[12] = ITC titration with L-fucose; details: 10 mM phosphate buffer pH 7.4, 298 K
Method: as §5, §6

[13] = ITC titration with uracil; details: Uracil (PBS) pH 7.4, 298 K
Method: as §5, §6

[14] = ITC titration with uric acid; details: Uric Acid (PBS) pH 7.4, 298 K
Method: as §5, §6

[15] = ITC titration with cytosine; details: 10 mM phosphate buffer pH 7.4, 298 K
Method: as §5, §6

[16] = ITC titration with adenosine; details: 10 mM phosphate buffer pH 7.4, 298 K
Method: as §5, §6

[17] = ITC titration with paracetamol; details: 10 mM phosphate buffer pH 7.4, 298 K
Method: as §5, §6

[18] = ITC titration with ascorbic acid; details: 10 mM phosphate buffer pH 7.4, 298 K
Method: as §5, §6

[19] = ITC titration with L-phenylalanine; details: 10 mM phosphate buffer pH 7.4, 298 K
Method: as §5, §6

[20] = ITC titration with L-tryptophan; details: 10 mM phosphate buffer pH 7.4, 298 K
Method: as §5, §6

[21] = 1H NMR titration with D-glucose
Method: (§7) ^1H-NMR titrations were performed on a Varian VNMR cryogenically cooled S600 spectrometer. Solutions of saccharides in D2O (99.9%), containing receptor at a known concentration to be used in the experiment, were prepared and allowed to equilibrate overnight before use if necessary. Aliquots were then added to an NMR tube containing a known concentration of receptor solution (typically 100 µM - 400 µM). The receptor concentration was therefore held constant while the carbohydrate concentration was increased. The sample tube was shaken after each addition and ^1H-NMR spectra were acquired at 298 K.
^1H-NMR titrations were performed on a Varian VNMR cryogenically cooled S600 spectrometer. Solutions of saccharides in D2O (99.9%), containing receptor at a known concentration to be used in the experiment, were prepared and allowed to equilibrate overnight before use if necessary. Aliquots were then added to an NMR tube containing a known concentration of receptor solution (typically 50 µM - 250 µM). The receptor concentration was therefore held constant while the carbohydrate concentration was increased. The sample tube was shaken after each addition, centrifuged and ^1H-NMR spectra were acquired at 298 K.
If the receptor bound saccharide slower than the NMR sample rate (“slow exchange”), the Ka was determined by analysing the NMR integral of a peak assigned to the Host-Guest complex. The variable X was defined as the integral of an isolated resonance of the complex (typically in the aromatic region) divided by the integral of all the related resonances (typically the whole aromatic region). As X is proportional to fraction of host in the bound state, the change in X could be plotted as a function of the guest concentration to give a curve which could be fitted to a 1:1 binding model to yield the association constant Ka. Mathematically, the fitting process is essentially identical to that employed for binding with fast exchange, except that the integral of a peak due to the complex replaces the chemical shift of a peak due to bound + unbound receptor. The calculation was performed using a non-linear least squares curve-fitting programme implemented within Excel. The programme yields binding constants Ka and limiting X (Xlim) as output. An estimated error for Ka was obtained from individual data points by assuming the determined Ka and Xlim.

[22] = 1H NMR titration with myo-inositol; details: D2O, 10 mM phosphate buffer pH 7.4, 298 K
Method: as §7
(§8) ^1H-NMR titrations were performed on a Varian VNMR cryogenically cooled S600 spectrometer. Solutions of saccharides in D2O (99.9%), containing receptor at a known concentration to be used in the experiment, were prepared and allowed to equilibrate overnight before use if necessary. Aliquots were then added to an NMR tube containing a known concentration of receptor solution (typically 50 µM - 250 µM). The receptor concentration was therefore held constant while the carbohydrate concentration was increased. […]
(§9) If the receptor bound saccharide slower than the NMR sample rate (“slow exchange”), the Ka was determined by analysing the NMR integral of a peak assigned to the Host-Guest complex. […] An estimated error for Ka was obtained from individual data points by assuming the determined Ka and Xlim.

[23] = 1H NMR titration with D-cellobiose; details: [Host]total 110 µM
Source text: The integrals of the peak at 8.02 ppm (denoted with •, see FIG. 31) were made relative to integral of the same peak (8.02 ppm) when all receptor is assumed to be saturated with guest (i.e. the final addition in the titration, row denoted with yellow). These relative integrals are then used to determine the amount of Host-Guest [HG]. This value for [HG] along with calculated values for free host [H]free and free guest [G]free can be used to calculate the Ka at each point in the titration. […] Not all Ka values calculated were included in the averaged Ka value. The earlier integrations are unreliable due to the very small intensity of the peak at 8.02 ppm. The later integrations were also deemed unreliable due to large deviations in baseline of the spectra due to the large excess of guest present. The selected values for Ka used for the average calculation and the averaged Ka itself corroborate with the results obtained from ITC.

[24] = 1H NMR titration with 2-deoxy-D-glucose; details: D2O, 10 mM phosphate buffer pH 7.4, 298 K
Method: as §7, §8, §9

[25] = 1H NMR ROESY of receptor with D-glucose; details: receptor 2 mM with D-glucose 5 mM (2.5 equivalents) in D2O
Source text: Chemical exchange peaks (black, annotated) link CH protons on β-D-glucose in free and bound states. Signals for bound α-D-glucose were not observed under these conditions.

[26] = 2-Deoxy-D-Glucose, 10 mM phosphate buffer pH 7.4, 298 K
[27] = D-Cellobiose, 10 mM phosphate buffer pH 7.4, 298 K

## CCc1c2c(CC)c3c(CC)c1CNC(=O)Nc1ccc(C(=O)NC(CCC(=O)NC(CCC(=O)[O-])(CCC(=O)[O-])CCC(=O)[O-])(CCC(=O)NC(CCC(=O)[O-])(CCC(=O)[O-])CCC(=O)[O-])CCC(=O)NC(CCC(=O)[O-])(CCC(=O)[O-])CCC(=O)[O-])cc1NC(=O)NCc1c(CC)c(c(CC)c(c1CC)CNC(=O)Nc1cc(C(=O)NC(CCC(=O)NC(CCC(=O)[O-])(CCC(=O)[O-])CCC(=O)[O-])(CCC(=O)NC(CCC(=O)[O-])(CCC(=O)[O-])CCC(=O)[O-])CCC(=O)NC(CCC(=O)[O-])(CCC(=O)[O-])CCC(=O)[O-])ccc1NC(=O)NC3)CNC(=O)Nc1cc(C(=O)NC(CCC(=O)NC(CCC(=O)[O-])(CCC(=O)[O-])CCC(=O)[O-])(CCC(=O)NC(CCC(=O)[O-])(CCC(=O)[O-])CCC(=O)[O-])CCC(=O)NC(CCC(=O)[O-])(CCC(=O)[O-])CCC(=O)[O-])ccc1NC(=O)NC2.[Na+].[Na+].[Na+].[Na+].[Na+].[Na+].[Na+].[Na+].[Na+].[Na+].[Na+].[Na+].[Na+].[Na+].[Na+].[Na+].[Na+].[Na+].[Na+].[Na+].[Na+].[Na+].[Na+].[Na+].[Na+].[Na+].[Na+] [Receptor 1, Triethylbenzene Receptor]
[1]; [26]
  ΔG (Determined by ITC): -3.9 kcal/mol
  ΔH (Determined by ITC): -0.693 kcal/mol
[1]; 2-deoxy-D-glucose in H2O
  Ka by ITC, fit calculated with the supplied ITC software: 657 ± 90 M⁻¹
[2]
  TΔS (Determined by ITC): 1 kcal/mol
  ΔG (Determined by ITC): -3.08 kcal/mol
  ΔH (Determined by ITC): -2.1 kcal/mol
[3]
  TΔS (Determined by ITC): 0.14 kcal/mol
  ΔG (Determined by ITC): -2.94 kcal/mol
  ΔH (Determined by ITC): -2.82 kcal/mol
[4]
  TΔS (Determined by ITC): -2.32 kcal/mol
  ΔG (Determined by ITC): -3.18 kcal/mol
  ΔH (Determined by ITC): -5.5 kcal/mol
[5]
  TΔS (Determined by ITC): -2.27 kcal/mol
  ΔG (Determined by ITC): -2.53 kcal/mol
  ΔH (Determined by ITC): -4.78 kcal/mol
[6]; [27]
  TΔS (Determined by ITC): -0.17 kcal/mol
  ΔG (Determined by ITC): -2.03 kcal/mol
  ΔH (Determined by ITC): -2.2 kcal/mol
[6]; cellobiose in H2O
  Ka by ITC, fit calculated with the supplied ITC software: 36.6 ± 2.5 M⁻¹
[7]
  Ka (Determined by ITC): 0 M⁻¹
[8]
  Ka (Determined by ITC): 0 M⁻¹
[9]
  Ka (Determined by ITC): 0 M⁻¹
[10]
  Ka (Determined by ITC): 0 M⁻¹
[11]
  Ka (Determined by ITC): 0 M⁻¹
[12]
  Ka (Determined by ITC): 0 M⁻¹
[13]
  Ka (Determined by ITC): 0 M⁻¹
[14]
  Ka (Determined by ITC): 0 M⁻¹
[15]
  Ka (Determined by ITC): 0 M⁻¹
[16]
  Ka (Determined by ITC): 0 M⁻¹
[17]
  Ka (Determined by ITC): 0 M⁻¹
[18]
  Ka (Determined by ITC): 0 M⁻¹
[19]
  Ka (Determined by ITC): 0 M⁻¹
[20]
  Ka (Determined by ITC): 0 M⁻¹
[21]; D2O with no added salts
  Saturation of receptor on addition of 2 equivalents (0.2 mM) of D-glucose (1H NMR): did saturate the receptor
[21]; with MgSO4 (0.8 mM) and CaCl2 (1.8 mM), D2O, 10 mM phosphate buffer pH 7.4, 298 K
  Saturation of receptor on addition of 2 equivalents (0.2 mM) of D-glucose (1H NMR): did not saturate the receptor
[22]
  Ka (Determined by NMR): 7328 ± 7.4%
[23]; [Guest]total 20 mM
  Ka calculated at titration point (NMR): 0.55 M⁻¹
[23]; [Guest]total 39 mM
  Ka calculated at titration point (NMR): 29.0 M⁻¹
[23]; [Guest]total 58 mM
  Ka calculated at titration point (NMR): 31.2 M⁻¹
[23]; [Guest]total 96 mM
  Ka calculated at titration point (NMR): 29.4 M⁻¹
[23]; [Guest]total 132 mM
  Ka calculated at titration point (NMR): 34.9 M⁻¹
[23]; [Guest]total 167 mM
  Ka calculated at titration point (NMR): 81.5 M⁻¹
[23]; [Guest]total 251 mM
  Ka calculated at titration point (NMR): 74.0 M⁻¹
[23]; [Guest]total 329 mM
  Ka calculated at titration point (NMR): 386 M⁻¹
[24]
  Binding implied by 1H NMR spectra (no Ka determinable): binding with intermediate rate of exchange
[25]
  Signals for bound α-D-glucose (ROESY): not observed
